Values belong to the compound of their own block, whether it stands above or below them.
Tested on: 996289-038-R-J1-PDC spheroid viability
Experiment: Anticancer human tumor 996289-038-R-J1-PDC patient-derived colon adenocarcinoma cell line growth inhibition [PI3K]
Conditions: spheroids with HUVEC and MSC; for viability, T/C: stronger effect = lower value
In short: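 Agents were dosed from a top concentration near clinical Cmax (otherwise 10 microM) in half-log decrements, alone or combined with PI3K inhibitors. The spheroids contain tumor cells plus endothelial (HUVEC) and MSC stroma; viability is measured.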

[1] = curve of first compound, second compound 0.00316 µM
[2] = curve of first compound, second compound 0.01 µM
[3] = curve of first compound, second compound 0.0316 µM
[4] = curve of first compound, second compound 0.1 µM
[5] = curve of first compound, second compound 0.316 µM
[6] = curve of first compound, second compound 1 µM
[7] = second compound 0.00316 µM, first compound 0.0316 µM
[8] = second compound 0.00316 µM, first compound 0.1 µM
[9] = second compound 0.00316 µM, first compound 0.316 µM
[10] = second compound 0.00316 µM, first compound 1 µM
[11] = second compound 0.00316 µM, first compound 3.16 µM
[12] = second compound 0.00316 µM, first compound 10 µM
[13] = second compound 0.01 µM, first compound 0.0316 µM
[14] = second compound 0.01 µM, first compound 0.1 µM
[15] = second compound 0.01 µM, first compound 0.316 µM
[16] = second compound 0.01 µM, first compound 1 µM
[17] = second compound 0.01 µM, first compound 3.16 µM
[18] = second compound 0.01 µM, first compound 10 µM
[19] = second compound 0.0316 µM, first compound 0.0316 µM
[20] = second compound 0.0316 µM, first compound 0.1 µM
[21] = second compound 0.0316 µM, first compound 0.316 µM
[22] = second compound 0.0316 µM, first compound 1 µM
[23] = second compound 0.0316 µM, first compound 3.16 µM
[24] = second compound 0.0316 µM, first compound 10 µM
[25] = second compound 0.1 µM, first compound 0.0316 µM
[26] = second compound 0.1 µM, first compound 0.1 µM
[27] = second compound 0.1 µM, first compound 0.316 µM
[28] = second compound 0.1 µM, first compound 1 µM
[29] = second compound 0.1 µM, first compound 3.16 µM
[30] = second compound 0.1 µM, first compound 10 µM
[31] = second compound 0.316 µM, first compound 0.0316 µM
[32] = second compound 0.316 µM, first compound 0.1 µM
[33] = second compound 0.316 µM, first compound 0.316 µM
[34] = second compound 0.316 µM, first compound 1 µM
[35] = second compound 0.316 µM, first compound 3.16 µM
[36] = second compound 0.316 µM, first compound 10 µM
[37] = second compound 1 µM, first compound 0.0316 µM
[38] = second compound 1 µM, first compound 0.1 µM
[39] = second compound 1 µM, first compound 0.316 µM
[40] = second compound 1 µM, first compound 1 µM
[41] = second compound 1 µM, first compound 3.16 µM
[42] = second compound 1 µM, first compound 10 µM
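Also: spheroids exposed to compounds for seven days before viability read.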
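For viability, T/C in this document: luminescence used as a proxy for viable cell amount; percent viability relative to DMSO vehicle control as 100%.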

IC50 [1]: 7.54 µM | IC50 [2]: 7.76 µM | IC50 [3]: 5.77 µM | IC50 [4]: 4.2 µM | IC50 [5]: < 0.0316 µM | IC50 [6]: < 0.0316 µM
Compound: CC1(C)CCC(CN2CCN(c3ccc(C(=O)NS(=O)(=O)c4ccc(NCC5CCOCC5)c([N+](=O)[O-])c4)c(Oc4cnc5[nH]ccc5c4)c3)CC2)=C(c2ccc(Cl)cc2)C1 + COc1c(OCCCN2CCOCC2)ccc2c3n(c(=NC(=O)c4cnc(N)nc4)nc12)CCN3
viability, T/C [7]: 88.5% | viability, T/C [8]: 97.1% | viability, T/C [9]: 94.2% | viability, T/C [10]: 110% | viability, T/C [11]: 106% | viability, T/C [12]: 34% | viability, T/C [13]: 95.6% | viability, T/C [14]: 88.6% | viability, T/C [15]: 84.2% | viability, T/C [16]: 97.7% | viability, T/C [17]: 103% | viability, T/C [18]: 37.6% | viability, T/C [19]: 81.3% | viability, T/C [20]: 84.2% | viability, T/C [21]: 72.9% | viability, T/C [22]: 86.1% | viability, T/C [23]: 90.5% | viability, T/C [24]: 19.7% | viability, T/C [25]: 65% | viability, T/C [26]: 62.5% | viability, T/C [27]: 62.8% | viability, T/C [28]: 59.5% | viability, T/C [29]: 65.2% | viability, T/C [30]: 10.3% | viability, T/C [31]: 40.4% | viability, T/C [32]: 36.2% | viability, T/C [33]: 33.9% | viability, T/C [34]: 36.9% | viability, T/C [35]: 38.6% | viability, T/C [36]: 11.3% | viability, T/C [37]: 19.5% | viability, T/C [38]: 19.5% | viability, T/C [39]: 21.1% | viability, T/C [40]: 23.3% | viability, T/C [41]: 18.8% | viability, T/C [42]: 6.87%

IC50 (curve of compound): > 0.1 µM
Compound: Cn1ncnc1[C@H]1c2n[nH]c(=O)c3cc(F)cc(c23)N[C@@H]1c1ccc(F)cc1
viability, T/C (compound 0.001 µM): 105% [middle of 4 runs] | viability, T/C (compound 0.00316 µM): 103% [middle of 4 runs] | viability, T/C (compound 0.01 µM): 100% [middle of 4 runs] | viability, T/C (compound 0.0316 µM): 109% [middle of 4 runs] | viability, T/C (compound 0.1 µM): 98.9% [middle of 4 runs]

IC50 [3]: 6.51 µM | IC50 [4]: 6.87 µM | IC50 [5]: 6.7 µM | IC50 [6]: 6.63 µM | IC50 (curve of first compound, second compound 3.16 µM): 6.55 µM | IC50 (curve of first compound, second compound 10 µM): 5.93 µM
Compound: CCCS(=O)(=O)Nc1ccc(F)c(C(=O)c2c[nH]c3ncc(-c4ccc(Cl)cc4)cc23)c1F + CC(Nc1ncnc2nc[nH]c12)c1cc2cccc(Cl)c2c(=O)n1-c1ccccc1
viability, T/C [19]: 99.5% | viability, T/C [20]: 98.8% | viability, T/C [21]: 103% | viability, T/C [22]: 97.1% | viability, T/C [23]: 98.6% | viability, T/C [24]: 21.1% | viability, T/C [25]: 103% | viability, T/C [26]: 96.8% | viability, T/C [27]: 119% | viability, T/C [28]: 107% | viability, T/C [29]: 111% | viability, T/C [30]: 22.2% | viability, T/C [31]: 89.8% | viability, T/C [32]: 103% | viability, T/C [33]: 107% | viability, T/C [34]: 106% | viability, T/C [35]: 99.7% | viability, T/C [36]: 23.5% | viability, T/C [37]: 105% | viability, T/C [38]: 98.2% | viability, T/C [39]: 96.9% | viability, T/C [40]: 89% | viability, T/C [41]: 102% | viability, T/C [42]: 23.2% | viability, T/C (second compound 3.16 µM, first compound 0.0316 µM): 94.9% | viability, T/C (second compound 3.16 µM, first compound 0.1 µM): 95.4% | viability, T/C (second compound 3.16 µM, first compound 0.316 µM): 93.2% | viability, T/C (second compound 3.16 µM, first compound 1 µM): 85.6% | viability, T/C (second compound 3.16 µM, first compound 3.16 µM): 101% | viability, T/C (second compound 3.16 µM, first compound 10 µM): 24.2% | viability, T/C (second compound 10 µM, first compound 0.0316 µM): 87% | viability, T/C (second compound 10 µM, first compound 0.1 µM): 87.8% | viability, T/C (second compound 10 µM, first compound 0.316 µM): 88.3% | viability, T/C (second compound 10 µM, first compound 1 µM): 82.5% | viability, T/C (second compound 10 µM, first compound 3.16 µM): 99.6% | viability, T/C (second compound 10 µM, first compound 10 µM): 17.5%

The next lines start with the compound.

Compound: CC(C)NCC(C(=O)N1CCN(c2ncnc3c2C(C)CC3O)CC1)c1ccc(Cl)cc1 (centres undefined) + COc1c(OCCCN2CCOCC2)ccc2c3n(c(=NC(=O)c4cnc(N)nc4)nc12)CCN3
IC50 [1]: > 10 µM | IC50 [2]: > 10 µM | IC50 [3]: > 10 µM | IC50 [4]: 4.89 µM | IC50 [5]: < 0.0316 µM | IC50 [6]: < 0.0316 µM | viability, T/C [7]: 98.9% | viability, T/C [8]: 82.3% | viability, T/C [9]: 103% | viability, T/C [10]: 103% | viability, T/C [11]: 103% | viability, T/C [12]: 62.2% | viability, T/C [13]: 87.6% | viability, T/C [14]: 84.9% | viability, T/C [15]: 101% | viability, T/C [16]: 102% | viability, T/C [17]: 106% | viability, T/C [18]: 65.3% | viability, T/C [19]: 86.3% | viability, T/C [20]: 77.1% | viability, T/C [21]: 78% | viability, T/C [22]: 89% | viability, T/C [23]: 76.1% | viability, T/C [24]: 51.1% | viability, T/C [25]: 59.7% | viability, T/C [26]: 55.8% | viability, T/C [27]: 57% | viability, T/C [28]: 66.9% | viability, T/C [29]: 57.3% | viability, T/C [30]: 36.7% | viability, T/C [31]: 32.9% | viability, T/C [32]: 33.7% | viability, T/C [33]: 38.1% | viability, T/C [34]: 32.5% | viability, T/C [35]: 38.6% | viability, T/C [36]: 27.1% | viability, T/C [37]: 24% | viability, T/C [38]: 18.5% | viability, T/C [39]: 18% | viability, T/C [40]: 23% | viability, T/C [41]: 20.1% | viability, T/C [42]: 15.3%

Compound: CCN1CCN(Cc2ccc(Nc3ncc(F)c(-c4cc(F)c5nc(C)n(C(C)C)c5c4)n3)nc2)CC1
viability, T/C (compound 0.00316 µM): 99.6% [middle of 4 runs] | viability, T/C (compound 0.01 µM): 91.2% [middle of 4 runs] | viability, T/C (compound 0.0316 µM): 94% [middle of 4 runs] | viability, T/C (compound 0.1 µM): 85.2% [middle of 4 runs] | viability, T/C (compound 0.316 µM): 85.7% [middle of 4 runs] | viability, T/C (compound 1 µM): 85.3% [middle of 4 runs] | IC50 (curve of compound): > 1 µM
